Assay results reported in patent US9345691B2, “Beta-lactam compounds for enhancing T cell-mediated immune responses” (STEM CELL MEDICINE LTD., priority 2011, dated 2016).

Tests used:
[1] = Dissolution in aqueous solution; type: physicochemical
[2] = tested on: encephalitogenic BP10 T-cell line; experiment: Adoptive EAE by BP10 line stimulated in vitro with test substance; type: in vivo, rat
Excerpt: The ability of a compound to enhance T cell activity may be determined, for example, using an in vivo assay testing the effect of a given compound on the severity of adoptive (passive) EAE, namely, EAE which is induced by the injection of activated encephalitogenic T cell line to the model animal. In order to test a compound, the encephalitogenic T cells are activated in the presence of the compound prior to injection. An exemplary procedure is described in the Examples section hereinbelow.
Antigen-specific T-cell lines were established from lymph node cells that had been stimulated with myelin basic protein (MBP; 10 μg/ml) for 3 days in stimulation medium as described below. Following stimulation, the T-cell blasts were isolated on Lympho-prep (Nycomed Pharma, Oslo, Norway) and seeded in propagation medium. Propagation medium was identical to stimulation medium without autologous serum, but supplemented with fetal calf serum 10% and T-cell growth factors from the supernatant of Con A stimulated spleen cells 10% (Mor et al. (1990) J Clin Invest, 85, 1594-1598). Animals were injected intra-peritoneally with 10^7 MBP-stimulated T cells, following 6-8 cycles of in vitro stimulations. It is known that MBP-reactive lines undergo a reduction in pathogenicity after 6 or more in vitro stimulations. In some experiments the BP10 line was stimulated with phorbol myristate acetate (PMA; 50 ng/ml) and ionomycin (500 ng/ml) for 3 days in stimulation medium, without antigen-presenting cells.
Active EAE was induced by subcutaneous injection of 25 μg guinea-pig MBP (GpMBP) in complete Freund's adjuvant (CFA). CFA was prepared by adding 4 mg/ml Mycobacterium tuberculosis H37Ra (Difco, Mich.) to incomplete Freund's adjuvant (IFA). Adoptive EAE was transferred by intra-peritoneal injection of guinea-pig MBP-activated cells of the BP10 line as described in Mor et al. (1993) J Clin Invest, 92, 2199-2206. […] Clinical scoring was: +1, paralysis of tail; +1.5, paresis of posterior paws and ataxia; +2, paraplegia; +3, paralysis extending to thoracic spine; +4, a moribund state.
Treatment with cefuroxime in vivo could affect many different host agents involved in EAE or AA as well as influencing the rats' bacterial flora. To test whether the antibiotic might directly modify the behavior of effector T cells, an encephalitogenic T-cell line was stimulated in the presence or absence of cefuroxime in vitro. The weakly encephalitogenic BP10 line was used, and was stimulated for 3 days with MBP in the presence or absence of cefuroxime (50 μg/ml). The activated T cells were then washed to remove the antibiotic, the T cells were injected intra-peritoneally into naïve recipient rats (10^7 per rat), and EAE was scored. The BP10 line at later stimulations was used, when its pathogenic potential is reduced, allowing to detect both suppression and enhancement of disease. […] To rule out antigen presenting cells (APC) as the target of the beta-lactam antibiotic, the encephalitogenic BP10 line was stimulated without APC using PMA (50 ng/ml) and Ionomycin (500 ng/ml) in the presence or absence of cefuroxime.

[3] = tested on: RMA cells (T cell lymphoma of mouse origin); experiment: RMA mouse tumor model; type: in vivo
Experimental: In the RMA mouse tumor model (T cell lymphoma of mouse origin), T cells are known to participate in tumor rejection, and thus augmenting T cell effects might enhance the animal's ability to reject the tumor implant. RMA cells were injected to C57BL/6J Ola Hsd mice (10^5 cells per mouse) (Chen et al. (1994) J Exp Med, 179:523-532). […] Tumor size was measured and recorded.
An additional experiment was carried out in the same experimental system, comparing 6-APA to clavulanic acid.

[4] = tested on: NOD mice; experiment: Autoimmune diabetes in NOD mice; type: in vivo, mouse; details: NOD mice at 5.7 months; SC weekly; ampicillin 1300 μg, ceftriaxone 675 μg per mouse
Experimental: NOD mice spontaneously develop diabetes mellitus similar to type I diabetes in humans. […] The mice were followed for the development of diabetes, marked by blood sugar above 300 mg/dl on 2 measurements.

[5] = tested on: experimental autoimmune encephalomyelitis (EAE) in rats; experiment: Actively induced EAE; type: in vivo, rat; details: oral in drinking water from day 7 postinduction, daily dose 50 mg/kg, versus two control groups
[6] = target: T1, albumin (Rattus norvegicus, UniProt P02770); experiment: Pen 9 detection of penicillin-albumin in vivo; details: Lewis rats, 50 mg/rat intraperitoneally, 2 hours later
T1 construct: from tissue; host or cells: various tissues and serum of Lewis rats
Experimental: Rat tissues were ground with a tissue grinder in lysis buffer. The homogenate was centrifuged 14000 g for 15 min in 4° C. and the supernatant was used for western blotting. The protein concentration was determined using the Bio-Rad Dc protein assay (Bio-Rad laboratories, Hercules, Calif.). Following electrophoresis in SDS gel in a mini-gel apparatus (Bio-Rad), the gels were electro-transferred to nitrocellulose membranes (Schleicher and schuell, Dassel, Germany). The nitrocellulose membranes were washed with distilled water for 5 min, and then blocked for 60 min. using a blocking solution composed of 2% bovine serum albumin (Fraction V, Sigma, St. Louis Mo.), 2.5% milk powder (Bio-Rad), Tris (Sigma) pH 7.5 10 mM, NaCl 150 mM and 0.02% thimerosal (Sigma). After 3×10 min. washes in PBS/Tween 20 (PBS/T; 0.02%, Sigma), primary antibodies ( 1/1000) were incubated with the membranes in PBS/Tween for 60 min. Following another series of washes in PBS/T (3×10 min), the membranes were incubated with a secondary antibody (Peroxidase conjugated anti rabbit or anti mouse, IgG Jackson ImmunoResearch, West Grove, Calif.) at a 1/2500 dilution in 2% milk in PBS solution for 60 min. After another 3×10 min washes, the membranes were incubated with the ECL reagent (for 60 seconds) and exposed to X-ray film. […]

[7] = tested on: albumin; experiment: Pen 9 western blot of cell lines treated with penicillin; type: cell-based; details: cell lines raised in vitro
[8] = free penicillin; cited from earlier work
[9] = target: T2, 67 kDa band in human T-cell lysates (Homo sapiens, UniProt P02768); experiment: Radioactive penicillin binding assay; details: tritium-labeled, 10 and 20 μCi, 3 days with PMA and Ionomycin; CD4 and CD8 T cell lysates
T2 construct: endogenous in cells; host or cells: primary human CD4 or CD8 T cells from peripheral blood of healthy donors
T2 sequence (P02768 25-609): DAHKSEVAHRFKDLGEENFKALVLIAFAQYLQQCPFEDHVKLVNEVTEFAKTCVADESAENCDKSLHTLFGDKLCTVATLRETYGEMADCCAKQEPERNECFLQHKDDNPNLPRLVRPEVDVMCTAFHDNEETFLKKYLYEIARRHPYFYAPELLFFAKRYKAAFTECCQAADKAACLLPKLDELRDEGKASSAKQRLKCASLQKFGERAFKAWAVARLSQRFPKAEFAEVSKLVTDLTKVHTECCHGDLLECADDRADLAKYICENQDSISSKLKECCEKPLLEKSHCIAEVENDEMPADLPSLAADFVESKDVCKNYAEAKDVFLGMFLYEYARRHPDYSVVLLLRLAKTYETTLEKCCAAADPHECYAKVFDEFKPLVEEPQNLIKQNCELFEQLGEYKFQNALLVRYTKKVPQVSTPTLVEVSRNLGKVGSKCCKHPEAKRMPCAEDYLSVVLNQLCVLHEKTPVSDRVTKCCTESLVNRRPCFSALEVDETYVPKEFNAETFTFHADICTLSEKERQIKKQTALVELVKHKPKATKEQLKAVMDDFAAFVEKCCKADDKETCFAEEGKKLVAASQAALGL
Excerpt: Tritium labeled benzylpenicillin was obtained from Amersham (Buckinghamshire, UK; 250 μCi, 1 mCi/ml). Human CD4 or CD8 T cells were stimulated in 24 well plates, 5×10^6 cells per ml, with PMA and Ionomycin for 72 hr in the presence of 10 or 20 μCi of labeled penicillin. Following stimulation, the cells were collected, lysed and separated by SDS PAGE. The gels were fixed, treated with 1M sodium salicylate, and dried. The dried gels were exposed to x-ray film (BioMax MS film) for 14 days, with intensifying screen (BioMax TranScreen, Eastman Kodak Co., New Haven Conn., USA), and were developed.
To test whether beta-lactam antibiotics might affect T-cell behavior likewise by covalently binding a key T-cell protein, purified CD4 or CD8 human T cells were incubated with 10 and 20 μCi of tritium-labeled lactam benzylpenicillin (Amersham, Buckinghamshire, UK) for 3 days during stimulation with PMA and Ionomycin. The stimulated T cells were collected, washed, lysed and their proteins were subjected to SDS-PAGE separation. Dried gels were exposed in intensifying screens to Xray film for 2 weeks at −80° C. […] The intensity of the band was stronger at the 20 μCi concentration of penicillin.

[10] = tested on: human CD3 T cells; experiment: Pen 9 western blot of antibiotic-treated human T cells; type: cell-based; details: human T cells activated by mitogen in presence of the antibiotic
[11] = BP10 line, same doses as penicillin
[12] = 17 days after tumor injection, versus PBS treated and non-injected mice

In the case of CC1(C)S[C@@H]2[C@H](N)C(=O)N2[C@H]1C(=O)O [6-APA, 6-aminopenicillanic acid], the “solubility in aqueous solution” value [1] is reported as “difficult to dissolve in aqueous solution”, the “severity of adoptive EAE” value [2, 11] is reported as “EAE enhancing ability, similar to penicillin” and the tumor size [3, 12] is reported as “smaller tumors”. For the same molecule, the tumor size ([3]; C57BL/6J mice, SC 2 μg/mouse 3 times per week, last two measurements, versus control mice) was “significantly smaller”.

For CO/N=C(\C(=O)N[C@@H]1C(=O)N2C(C(=O)O)=C(CSc3nc(=O)c(=O)[nH]n3C)CS[C@H]12)c1csc(N)n1 [ceftriaxone], the “severity of adoptive EAE” value ([2]; BP10 line stimulated 3 days with MBP in presence of 50 μg/ml, 10^7 cells IP per rat) was “enhanced EAE severity” and the incidence of diabetes [4] was 60%.

With CO/N=C(\C(=O)N[C@@H]1C(=O)N2C(C(=O)OC(C)OC(C)=O)=C(COC(N)=O)CS[C@H]12)c1ccco1 (stereo partly shown) [cefuroxime axetil] the “severity of actively induced EAE” value [5] was “significantly more severe EAE”.

In the case of O=C(O)[C@H]1/C(=C/CO)O[C@@H]2CC(=O)N21 [clavulanic acid], the “severity of adoptive EAE (pathogenicity of BP10 line)” value ([2]; BP10 line stimulated with 25 μg/ml, 5 rats per group) is reported as “enhanced the pathogenicity of BP10 line” and the tumor size [3, 12] is reported as “smaller tumors”.

In the case of CC1(C)S[C@@H]2[C@H](NC(=O)Cc3ccccc3)C(=O)N2[C@H]1C(=O)O [penicillin, benzylpenicillin], the “67 kD band (penicilloylated albumin) in tissue lysates” value [6] is given as “appears in all tissues examined and is most abundant in serum”, the “penicillin-modified albumin band in cell line lysates” value [7] is given as “could be detected in mesenchymal stem cells, dendritic cells, Jurkat, MOLT4, FAO and CEM lines” and the half-life [8] is given as 42 min. For the same molecule, the “covalent binding to T-cell protein (radioactive band on SDS-PAGE)” value [9] was “single major penicillin-protein radioactive band was detected at 67 kD” and the “reactivity of Pen 9 antibody with lysates of treated T cells” value [10] was “reacted specifically to a major protein of the penicillin-treated T cells”.

With C[C@]1(Cn2ccnn2)[C@H](C(=O)O)N2C(=O)C[C@H]2S1(=O)=O [tazobactam] the “severity of adoptive EAE” value [2, 11] was “EAE enhancing ability, similar to penicillin”.

B1: Penicillin-modified rat albumin: rat albumin modified by penicillin (conjugate, UniProt P02770 25-608, looked up)
Albumin: EAHKSEIAHRFKDLGEQHFKGLVLIAFSQYLQKCPYEEHIKLVQEVTDFAKTCVADENAENCDKSIHTLFGDKLCAIPKLRDNYGELADCCAKQEPERNECFLQHKDDNPNLPPFQRPEAEAMCTSFQENPTSFLGHYLHEVARRHPYFYAPELLYYAEKYNEVLTQCCTESDKAACLTPKLDAVKEKALVAAVRQRMKCSSMQRFGERAFKAWAVARMSQRFPNAEFAEITKLATDVTKINKECCHGDLLECADDRAELAKYMCENQATISSKLQACCDKPVLQKSQCLAEIEHDNIPADLPSIAADFVEDKEVCKNYAEAKDVFLGTFLYEYSRRHPDYSVSLLLRLAKKYEATLEKCCAEGDPPACYGTVLAEFQPLVEEPKNLVKTNCELYEKLGEYGFQNAVLVRYTQKAPQVSTPTLVEAARNLGRVGTKCCTLPEAQRLPCVEDYLSAILNRLCVLHEKTPVSEKVTKCCSGSLVERRPCFSALTVDETYVPKEFKAETFTFHSDICTLPDKEKQIKKQTALAELVKHKPKATEDQLKTVMGDFAQFVDKCCKAADKDNCFATEGPNLVARSKEALA
modifications: penicillin-modified
With B1 the “severity of adoptive EAE (pathogenicity of BP10 line)” value ([2]; BP10 line stimulated 3 days with 5 mg/ml in stimulation medium) was “could also enhance the encephalogenicity of the BP10 line”.
